From US7998965B2, “Glutamate aggrecanase inhibitors” (Wyeth LLC, priority 2005, dated 2011)
≈ marks a conversion by molar mass, not a printed value. Where two headings read alike, the source gives them in different places.

Legend:
[1] = target: T1, purified recombinant human Aggrecanase-1 (rAgg1) (Homo sapiens, UniProt O75173); test: In vitro fluorescence screen for Aggrecanase-1 inhibitors; type: biochemical; details: Table 3; for IC50: read-out: Agg1 IC50; for Ki: read-out: Ki Agg1
T1 sequence (O75173 213-837): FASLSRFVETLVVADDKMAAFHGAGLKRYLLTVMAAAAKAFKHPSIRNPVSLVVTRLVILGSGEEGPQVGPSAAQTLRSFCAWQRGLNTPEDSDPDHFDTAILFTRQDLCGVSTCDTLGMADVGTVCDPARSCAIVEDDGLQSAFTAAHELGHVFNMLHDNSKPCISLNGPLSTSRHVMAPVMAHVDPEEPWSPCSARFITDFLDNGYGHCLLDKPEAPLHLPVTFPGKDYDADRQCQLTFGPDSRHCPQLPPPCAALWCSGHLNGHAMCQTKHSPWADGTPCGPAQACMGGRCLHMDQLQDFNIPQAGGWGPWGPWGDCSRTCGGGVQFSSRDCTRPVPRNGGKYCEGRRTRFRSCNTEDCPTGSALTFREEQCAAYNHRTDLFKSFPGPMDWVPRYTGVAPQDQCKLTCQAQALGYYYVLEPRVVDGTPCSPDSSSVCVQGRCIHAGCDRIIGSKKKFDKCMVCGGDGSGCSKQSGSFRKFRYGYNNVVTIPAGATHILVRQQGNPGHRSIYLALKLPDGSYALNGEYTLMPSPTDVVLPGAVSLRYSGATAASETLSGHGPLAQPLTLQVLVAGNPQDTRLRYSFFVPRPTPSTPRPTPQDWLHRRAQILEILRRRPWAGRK

[2] = target: T2, purified recombinant human Aggrecanase-2 (Ag2t-Phe628-Strep) (Homo sapiens, UniProt Q9UNA0); test: In vitro fluorescence screen for Aggrecanase-2 inhibitors; type: biochemical; details: Table 3; for IC50: read-out: Agg 2 IC50; for Ki: read-out: Ki Agg2
T2 construct: the form used is denoted as Ag2t-Phe628-Strep (MW=41,737)
T2 sequence (Q9UNA0 262-628): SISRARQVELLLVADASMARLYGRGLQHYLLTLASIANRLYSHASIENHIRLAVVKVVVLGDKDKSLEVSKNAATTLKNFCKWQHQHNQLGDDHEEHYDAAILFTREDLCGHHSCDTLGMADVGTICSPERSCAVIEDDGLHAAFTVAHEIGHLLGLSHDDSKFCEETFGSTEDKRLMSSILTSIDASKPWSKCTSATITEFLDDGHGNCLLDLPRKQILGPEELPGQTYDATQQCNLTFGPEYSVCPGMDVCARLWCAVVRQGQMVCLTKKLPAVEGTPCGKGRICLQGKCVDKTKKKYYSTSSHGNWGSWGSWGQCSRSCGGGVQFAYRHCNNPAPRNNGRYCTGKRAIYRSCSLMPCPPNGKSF

MMP-8 = MMP-8 (Homo sapiens, UniProt P22894); test: MMP-8 of Table 3; type: biochemical; details: unit inferred
Chain of MMP-8 (P22894 101-467, species assumed): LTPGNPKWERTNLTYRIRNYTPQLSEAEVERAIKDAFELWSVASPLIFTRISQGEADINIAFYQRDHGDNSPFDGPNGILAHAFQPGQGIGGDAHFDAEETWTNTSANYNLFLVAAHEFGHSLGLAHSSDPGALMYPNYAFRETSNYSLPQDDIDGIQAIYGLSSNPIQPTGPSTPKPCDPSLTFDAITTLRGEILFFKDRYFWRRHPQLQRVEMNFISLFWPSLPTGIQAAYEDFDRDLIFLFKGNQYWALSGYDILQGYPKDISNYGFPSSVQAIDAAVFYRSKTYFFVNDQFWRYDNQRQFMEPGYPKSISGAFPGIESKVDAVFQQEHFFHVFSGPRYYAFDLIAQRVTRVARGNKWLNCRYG

MMP-12 = MMP-12 (Homo sapiens, UniProt P39900); test: MMP-12 of Table 3; type: biochemical; details: unit inferred
Chain of MMP-12 (P39900 106-470): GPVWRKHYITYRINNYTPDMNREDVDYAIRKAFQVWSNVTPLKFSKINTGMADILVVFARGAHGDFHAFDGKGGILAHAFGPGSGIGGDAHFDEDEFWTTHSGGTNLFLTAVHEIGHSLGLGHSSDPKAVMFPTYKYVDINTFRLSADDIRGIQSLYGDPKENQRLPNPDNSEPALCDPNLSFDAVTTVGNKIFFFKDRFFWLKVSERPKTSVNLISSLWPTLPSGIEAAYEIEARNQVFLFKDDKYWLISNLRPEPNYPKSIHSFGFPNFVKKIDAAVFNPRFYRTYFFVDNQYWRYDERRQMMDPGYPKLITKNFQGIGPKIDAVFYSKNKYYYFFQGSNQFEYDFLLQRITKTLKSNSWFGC

[3] = system: Aggrecanase-mediated aggrecan cleavage in human OA cartilage explants; test: Human osteoarthritic cartilage explant efficacy study (BC3 western analysis); type: cell-based; details: for EC50: 144 h, read-out: EC50 (inhibition of aggrecanase generated aggrecan fragments)
From the text: Human OA Cartilage Explant Culture: Discarded tissues from consented knee replacement patients were obtained from New England Baptist Hospital (Brookline, Mass.) in sterile phosphate buffered saline (PBS) after about 2-4 hrs post surgery. Cartilage slices were harvested from the knee specimens and washed several times in PBS. These cartilage slices were cut into appropriate pieces (6-8 mm) and rinsed in PBS and then in media and further cultured for additional days as cartilage explants. The medium consisted of Dulbecco's Modified Eagle's medium (DMEM, JRH Biosciences, Lenexa, Kans.), 50 μg/ml ascorbic acid (Wako, Osaka, Japan), 10 mM HEPES, pH 7.0 (Mediatech, Herndon, Va.), 2 mM L-glutamine (Mediatech), 100 U/ml antibiotic-antimycotic solution (Mediatech).
Test compounds: The test compounds are described in Examples 8OO, 8NNNNNNN, and 8WWWWWWW. Stock solutions of the compounds were prepared at 1 mg/ml in DMSO, aliquoted and stored at −20° C. Working solutions of the compounds were made in DMSO and added to the culture for efficacy studies.
Efficacy study: Cartilage explants were cultured for 2-3 days in DMEM medium in a 37° C. and 5% CO2 environment to equilibrate the tissue. Explants were weighed (˜250 mg) and placed in wells of a 24-well culture dish in 1 ml of medium and 3 replicates per treatment group. For the efficacy study, cartilage explants were cultured for 6 days in the presence or absence of various concentrations of the test compound. The media was replaced on day 3 and the experiment was terminated on day 6. Total aggrecan content of conditioned media was measured by a colorimetric assay with DMMB (Farndale, R W et al., Biochim Biophys Acta. 1986, 883, 173-177).
Western analysis: Aggrecan fragments in conditioned medium were analyzed by western analysis using neoepitope antibody, BC-3 designed to recognize the Aggrecanase-generated N-terminal interglobular neoepitope ^374ARGS. Equal cartilage weight equivalent conditioned media from each replicate well per treatment group was pooled and digested with Chondroitinase ABC (Sigma, St Louis, Mo.), Keratinase I (Seikagaku America, Falmouth, Mass.) and Keratinase II (Seikagaku America, Falmouth, Mass.) for 2 h at 37° C. Samples were concentrated by YM-10 centrifugal filter device (Millipore Corp., Bedford, Mass.), lyophilized and reconstituted with equal volume of water. Samples were separated under reducing conditions on 4-12% gradient Tris-glycine gels (Invitrogen, Carlsbad, Calif.). Proteins from the gels were transferred to nitrocellulose membranes. Immunoblots were probed using Mab BC-3 (Abcam, Cambridge, Mass.). Incubation with primary and alkaline-phosphatase-conjugated secondary goat anti-mouse IgG (Promega Corp., Madison, Wis.) was performed overnight at 4° C. and at room temperature for 1 h, respectively. The immunoblots were incubated with NBT/BCIP substrate (Promega Corp., Madison, Wis.) at room temperature to achieve optimum color development. The aggrecan fragments containing the ARGS neoepitope were quantitated by densitometry analysis and the percentage inhibition of aggrecan degradation by test compounds was determined.

recombinant human MMP-2 = target: T3, recombinant human MMP-2 (Homo sapiens, UniProt P08253); test: In vitro fluorescence assay of MMP-2 activity
T3 sequence (P08253 110-660): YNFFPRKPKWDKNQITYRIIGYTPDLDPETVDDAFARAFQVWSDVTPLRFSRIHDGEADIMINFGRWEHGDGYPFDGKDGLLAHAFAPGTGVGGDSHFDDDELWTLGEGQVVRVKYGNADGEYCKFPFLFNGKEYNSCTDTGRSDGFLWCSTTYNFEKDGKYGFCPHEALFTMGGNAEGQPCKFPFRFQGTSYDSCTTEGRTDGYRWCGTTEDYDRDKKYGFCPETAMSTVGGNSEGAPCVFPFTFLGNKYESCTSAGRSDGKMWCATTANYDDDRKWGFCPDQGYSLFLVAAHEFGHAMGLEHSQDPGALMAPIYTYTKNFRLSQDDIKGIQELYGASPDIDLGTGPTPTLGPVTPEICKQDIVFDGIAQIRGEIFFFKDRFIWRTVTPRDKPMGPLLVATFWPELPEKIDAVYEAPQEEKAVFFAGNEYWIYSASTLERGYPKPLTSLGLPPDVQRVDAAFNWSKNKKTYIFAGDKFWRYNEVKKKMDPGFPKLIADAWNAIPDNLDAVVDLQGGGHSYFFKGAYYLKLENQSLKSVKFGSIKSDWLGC

[4] = Homo sapiens, read-out: % inhibition (BC3 analysis)

Structure (SMILES): CC(C)(Cc1ccc(F)cc1)NC(=O)[C@H](CCC(=O)O)NC(=O)c1ccc(-c2cccs2)cc1 [Example 8NNNNNNN, N-[2-(4-fluorophenyl)-1,1-dimethylethyl]-N^2-[4-(2-thienyl)benzoyl]-L-α-glutamine]
- IC50 [1]: < 30 nM
- Ki [1]: < 3 nM
- IC50 [2]: < 30 nM
- Ki [2]: 37 nM
- IC50 (MMP-8): 1210 nM
- IC50 (MMP-12): 680 nM
- EC50 ([3]; human OA cartilage explants, 6 days, BC3 analysis): < 0.04 µg/mL
- inhibition at 0.04 µg/mL ([3]; Homo sapiens, 0.04 ug/ml, average of 4 donors, read-out: % inhibition (BC3 analysis)): 70.2%
- inhibition at 0.08 µg/mL ([3]; Homo sapiens, 0.08 ug/ml, average of 4 donors, read-out: % inhibition (BC3 analysis)): 84.5%
- inhibition at 0.15 µg/mL ([3]; Homo sapiens, 0.15 ug/ml, average of 4 donors, read-out: % inhibition (BC3 analysis)): 66.7%
- inhibition at 0.3 µg/mL ([3]; Homo sapiens, 0.3 ug/ml, average of 4 donors, read-out: % inhibition (BC3 analysis)): 73.1%
- inhibition at 0.6 µg/mL ([3]; Homo sapiens, 0.6 ug/ml, average of 4 donors, read-out: % inhibition (BC3 analysis)): 98.9%
- inhibition at 1.25 µg/mL ([3]; Homo sapiens, 1.25 ug/ml, average of 4 donors, read-out: % inhibition (BC3 analysis)): 99.4%
- inhibition at 2.5 µg/mL ([3]; Homo sapiens, 2.5 ug/ml, average of 4 donors): 98.7%
- inhibition at 5 µg/mL ([3]; Homo sapiens, 5 ug/ml, average of 4 donors): 100%
- inhibition at 10 µg/mL ([3]; Homo sapiens, 10 ug/ml, average of 4 donors): 101%
- IC50 (recombinant human MMP-2): 2150 nM

Structure (SMILES): CC(C)(Cc1ccc(F)cc1)NC(=O)[C@H](CCC(=O)O)NC(=O)c1ccc(-c2ccc(Cl)s2)cc1 [Example 8WWWWWWW, N^2-[4-(5-chloro-2-thienyl)benzoyl]-N-[2-(4-fluorophenyl)-1,1-dimethylethyl]-L-α-glutamine]
- IC50 [1]: < 30 nM
- Ki [1]: < 3 nM
- IC50 [2]: 50 nM
- Ki [2]: 42 nM
- IC50 (MMP-8): 370 nM
- IC50 (MMP-12): 630 nM
- EC50 ([3]; Homo sapiens): 0.04 to 0.16 µg/mL (≈ 0.0774 to 0.309 µM)
- inhibition at 0.01 µg/mL [3, 4]: 2.85%
- inhibition at 0.02 µg/mL [3, 4]: 46.4%
- inhibition at 0.04 µg/mL [3, 4]: 23.5%
- inhibition at 0.08 µg/mL [3, 4]: 76.9%
- inhibition at 0.15 µg/mL [3, 4]: 88.5%
- inhibition at 0.3 µg/mL [3, 4]: 95%
- inhibition at 0.6 µg/mL [3, 4]: 98%
- inhibition at 1.25 µg/mL [3, 4]: 100%
- IC50 (recombinant human MMP-2): 1080 nM

Structure (SMILES): CC(C)(Cc1ccc(F)cc1)NC(=O)[C@H](CCC(=O)O)NC(=O)c1ccc(-c2ccsc2)cc1 [Example 8UUUUUUU, N-[2-(4-fluorophenyl)-1,1-dimethylethyl]-N^2-[4-(3-thienyl)benzoyl]-L-α-glutamine]
- IC50 [1]: < 30 nM
- Ki [1]: < 3 nM
- IC50 [2]: 60 nM
- Ki [2]: 60 nM
- IC50 (MMP-8): 2030 nM
- IC50 (MMP-12): 410 nM
- IC50 (recombinant human MMP-2): 5180 nM

Structure (SMILES): CC(C)(Cc1ccccc1)NC(=O)[C@H](CCC(=O)O)NC(=O)c1ccc(-c2ccc(Br)s2)cc1 [Example 8OOOOOOOOO, N^2-[4-(5-bromo-2-thienyl)benzoyl]-N-(1,1-dimethyl-2-phenylethyl)-L-α-glutamine]
- IC50 [1]: < 30 nM
- Ki [1]: 2.7 nM
- IC50 [2]: ~30 nM
- Ki [2]: 66 nM
- IC50 (MMP-8): 349 nM
- IC50 (MMP-12): 372 nM
- IC50 (recombinant human MMP-2): 718 nM

Structure (SMILES): CC(C)(Cc1ccc(F)cc1)NC(=O)[C@H](CCC(=O)O)NC(=O)c1ccc(-c2ccc(Br)s2)cc1 [Example 8WWWWWW, N^2-[4-(5-bromo-2-thienyl)benzoyl]-N-[2-(4-fluorophenyl)-1,1-dimethylethyl]-L-α-glutamine]
- IC50 [1]: < 3 nM
- Ki [1]: 7.1 nM
- IC50 [2]: 50 nM
- Ki [2]: 72 nM
- IC50 (MMP-8): 1000 nM
- IC50 (MMP-12): 5800 nM
- IC50 (recombinant human MMP-2): 2600 nM
